Assay results from PubChem BioAssay AID248 (DTP/NCI, 2004).
Several values for one entry are separate records, joined by “and”; a condition that tells them apart may be missing. Equal entries are not always repeated. Toxic doses and inconclusive results are not listed. Cut-off read from the data, not from the text of the source: active = T/C of 150% or more; inactive = T/C below 125%.

Test system: L1210 leukemia ip in BDF1 mice, survival T/C
Assay: NCI In Vivo Anticancer Drug Screen. Data for tumor model L1210 Leukemia (intraperitoneal) in B6D2F1 (BDF1) mice
Conditions: endpoint: mean survival time, higher = longer survival
How it was run: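 Mice bearing the transplanted tumor received compound or vehicle. Survival of the treated group was divided by that of the vehicle-treated control group to give the ratio.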

Measured: T/C

COc1ccc(/C(C#N)=C/c2ccc(N(C)CCC#N)cc2)cc1
inactive: dose: 12.5 mg/kg/injection, schedule: Q01DX009 (ip), vehicle: Klucel (hydroxypropylcellulose) (HPC) 103 % of control | dose: 25.0 mg/kg/injection, schedule: Q01DX009 (ip), vehicle: Klucel (hydroxypropylcellulose) (HPC) 100 % of control

COC(=O)c1cccc(OC)c1-c1c(OC)cccc1C(=O)OC
inactive: dose: 100.0 mg/kg/injection, schedule: Q01DX001 (ip), vehicle: Klucel (hydroxypropylcellulose) (HPC) 105 % of control | dose: 200.0 mg/kg/injection, schedule: Q01DX001 (ip), vehicle: Klucel (hydroxypropylcellulose) (HPC) 103 % of control | dose: 400.0 mg/kg/injection, schedule: Q01DX001 (ip), vehicle: Klucel (hydroxypropylcellulose) (HPC) 102 % of control

O=c1[nH]cnc2nc(SCc3cccc([N+](=O)[O-])c3)[nH]c12
inactive: dose: 150.0 mg/kg/injection, schedule: Q01DX001 (ip), vehicle: other 89 % of control | dose: 300.0 mg/kg/injection, schedule: Q01DX001 (ip), vehicle: other 87 % of control

NCCN1C(=O)C2C3CCC(O3)C2C1=O (centres undefined)
inactive: dose: 100.0 mg/kg/injection, schedule: Q01DX001 (ip), vehicle: carboxymethylcellulose (CMC) 97 % of control and 107 % of control | dose: 100.0 mg/kg/injection, schedule: Q04DX002 (ip), vehicle: carboxymethylcellulose (CMC) 97 % of control and 88 % of control | dose: 100.0 mg/kg/injection, schedule: Q04DX003 (ip), vehicle: carboxymethylcellulose (CMC) 101 % of control and 112 % of control | dose: 200.0 mg/kg/injection, schedule: Q01DX001 (ip), vehicle: carboxymethylcellulose (CMC) 97 % of control and 104 % of control | dose: 200.0 mg/kg/injection, schedule: Q04DX002 (ip), vehicle: carboxymethylcellulose (CMC) 93 % of control and 94 % of control | dose: 200.0 mg/kg/injection, schedule: Q04DX003 (ip), vehicle: carboxymethylcellulose (CMC) 104 % of control and 105 % of control | dose: 400.0 mg/kg/injection, schedule: Q01DX001 (ip), vehicle: carboxymethylcellulose (CMC) 96 % of control and 103 % of control | dose: 400.0 mg/kg/injection, schedule: Q04DX002 (ip), vehicle: carboxymethylcellulose (CMC) 108 % of control and 88 % of control | dose: 400.0 mg/kg/injection, schedule: Q04DX003 (ip), vehicle: carboxymethylcellulose (CMC) 96 % of control and 100 % of control

Nc1ncnc(N)c1NC(=O)c1cc(Cl)c(OCc2ccccc2)c(Cl)c1
inactive: dose: 100.0 mg/kg/injection, schedule: Q01DX001 (ip), vehicle: saline with Tween-80 91 % of control | dose: 200.0 mg/kg/injection, schedule: Q01DX001 (ip), vehicle: saline with Tween-80 96 % of control | dose: 400.0 mg/kg/injection, schedule: Q01DX001 (ip), vehicle: saline with Tween-80 96 % of control

CS(=O)(=O)Nc1cc(C(O)C2CCCCN2)ccc1O (centres undefined)
inactive: dose: 25.0 mg/kg/injection, schedule: Q01DX009 (ip), vehicle: saline 103 % of control | dose: 50.0 mg/kg/injection, schedule: Q01DX009 (ip), vehicle: saline 97 % of control | dose: 100.0 mg/kg/injection, schedule: Q01DX009 (ip), vehicle: saline 95 % of control | dose: 100.0 mg/kg/injection, schedule: Q04DX003 (ip), vehicle: saline 104 % of control | dose: 200.0 mg/kg/injection, schedule: Q04DX003 (ip), vehicle: saline 104 % of control
